This assay deals with NTRK1-G595R (Homo sapiens, UniProt P04629, G595R). Kind of assay: NTRK1-G595R cell proliferation assay (Table 13). The format is cell-based.

pIC50: −log10 of the molar value.

Chain of NTRK1-G595R (P04629 33-796 G595R): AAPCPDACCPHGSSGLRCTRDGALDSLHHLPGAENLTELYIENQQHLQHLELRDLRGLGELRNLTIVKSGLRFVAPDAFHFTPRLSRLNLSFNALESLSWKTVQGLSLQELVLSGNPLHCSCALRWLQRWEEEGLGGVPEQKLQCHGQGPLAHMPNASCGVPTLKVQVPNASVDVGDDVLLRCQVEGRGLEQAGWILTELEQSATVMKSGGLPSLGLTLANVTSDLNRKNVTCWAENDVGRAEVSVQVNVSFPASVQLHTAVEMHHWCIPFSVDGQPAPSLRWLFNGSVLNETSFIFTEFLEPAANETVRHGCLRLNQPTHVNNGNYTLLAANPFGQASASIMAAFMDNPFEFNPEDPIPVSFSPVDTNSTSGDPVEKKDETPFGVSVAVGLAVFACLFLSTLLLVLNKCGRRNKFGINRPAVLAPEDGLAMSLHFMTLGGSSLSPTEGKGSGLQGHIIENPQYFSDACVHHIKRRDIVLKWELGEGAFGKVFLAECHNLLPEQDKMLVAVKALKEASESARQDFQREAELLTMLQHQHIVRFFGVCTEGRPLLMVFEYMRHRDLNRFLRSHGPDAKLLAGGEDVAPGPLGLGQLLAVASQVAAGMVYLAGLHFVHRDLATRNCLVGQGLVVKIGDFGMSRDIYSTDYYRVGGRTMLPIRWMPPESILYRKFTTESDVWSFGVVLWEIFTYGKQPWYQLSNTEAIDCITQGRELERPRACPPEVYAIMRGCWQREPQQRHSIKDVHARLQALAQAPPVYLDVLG

For orientation: pIC50 means the IC50 on a negative log10 scale, so that one unit is a factor of ten. Low readings indicate a large IC50, high ones a small IC50. Molecule `CC(C)(O)c1nnc(-c2cnn3ccc(N4CCC[C@@H]4c4cc(F)ccc4F)nc23)[nH]1` [Compound 7, (R)-2-(5-(5-(2-(2,5-difluorophenyl)pyrrolidin-1-yl)pyrazolo[1,5-a]pyrimidin-3-yl)-4H-1,2,4-triazol-3-yl)propan-2-ol] gave a pIC50 of 6.97.

Values taken from patent publication US20210395256A1, “TYROSINE KINASE INHIBITORS, COMPOSITIONS AND METHODS THERE OF” (Betta Pharmaceuticals Co., Ltd., priority 2018, published 2021).
